Laboratory results as given in patent publication US6297250A, “Pyrimidopyrimidine compounds” (Newcastle University Ventures Limited, priority 1997, dated 2001).
Like-named read-outs stand apart in the source and are kept apart here.

How the values were obtained:
[1] = tested on: A549; settings: earlier experiments; cited from earlier work
[2] = tested on: MCF7; settings: earlier experiments; cited from earlier work
[3] = tested on: L1210 cells; experiment: Nucleoside transport inhibition assay: inhibition of 3H-thymidine uptake, with or without AGP or HSA; format: cell-based, murine; settings: for inhibition at 1 µM: L1210, 1 μM compound; for inhibition at 10 µM: L1210, 10 μM compound
Method: In vitro activity. […] For testing the compounds an established nucleoside transport assay involving measurement of thymidine uptake was adapted. Murine leukaemia L1210 cells were used in this assay as their nucleoside transport characteristics are well known. This assay for measuring thymidine uptake used a modification of the rapid mixing technique of Wohleheuter, R. […] Materials used included a transport buffer comprising 130 mM NaCl, 5 mM KC1, 1 mM MgCl, 5 mM NaH2 PO4, 10 mM glucose and 10 mM HEPES. This buffer was made up as sterile 5× concentrate and reconstituted in distilled water and adjusted to pH 7.4 immediately prior to carrying out the assay. […] The supernatant was aspirated and the cells were washed with ice-cold transport buffer and centrifuged again at 1000 rpm for 5 minutes at 4° C. The supernatant was removed and the cells were resuspended in ice-cold transport buffer to give a final cell density of 2-4×10^7 cells/mi. Cells were left on ice for 30 minutes recovery prior to starting the assay. […] The suspension was mixed well and 100 μl was layered onto 150 μl silicone oil (9:11 Dow Corning 556 (Sp.Gr. 0.98):Dow Corning 550 (Sp.Gr. 1.068) (final Sp.Gr. 1.028) overlaying 50 μl 3M KOH in 6 replicate 0.5 ml microfuge tubes. […] The tubes were immediately transferred to a microfuge (Eppendorf) and spun at 12000 rpm for 2 minutes to pellet the cells through the oil and into the KOH. The tubes were capped and the cells left to solubilise in the KOH for 1 hour. Cell number and viability for each run was determined by haemocytometer counting using trypan blue exclusion. […] The tubes were capped and cut in the oil layer such that the bottom portion (cells solubilised in KOH) fell into a 20 ml scintillation vial. 1 ml 0.25M acetic acid followed by 1 ml air was injected into the tube using a 2 ml syringe and 23-gauge needle to disperse and neutralise the KOH-solubilisedcells. 10 ml of Optiphase HiSafe™ scintillant was added and the vials capped and shaken. […] The [^14 C]:[^3 H] ratio was used to calculate the amount of non-transported contaminating [^3 H]thymidine in the extracellular space.

[4] = tested on: A549; experiment: Prevention of hypoxanthine rescue from antifolate growth inhibition (sulphorhodamine B); format: cell-based; settings: 3 μM NU3076, 10 μM hypoxanthine
Method: (§1) For example, in investigating the compound NU3076, two lung cancer cell lines: A549 and COR L23 and two breast cancer cell lines MCF7 and MDA MB231 were selected for study. All cell lines were adapted to growth in dialysed serum as previously referred to. […] Cells were exposed to varying concentrations of LY309887 in the presence or absence of 10 μM hypoxanthine, with or without 3 μM NU3076. At the end of the exposure period the cells were fixed and stained with sulphorhodamine B. Hypoxanthine protected all the cell lines from LY309887 growth inhibition.

[5] = tested on: MCF7; experiment: as above; format: cell-based; settings: 3 μM NU3076, 10 μM hypoxanthine
Method: as §1

[6] = Mus musculus, +5 mg/ml AGP vs no AGP, read-out: % Reduction (of inhibition by AGP)
[7] = Mus musculus, +5 mg/ml AGP, read-out: % Inhibition of 3H-thymidine uptake, +5 mg/ml AGP
[8] = Mus musculus, no AGP, read-out: % Inhibition of 3H-thymidine uptake, No AGP

| Compound | Block of hypoxanthine rescue from lometerxol growth inhibition [1] | Block of hypoxanthine rescue from lometerxol growth inhibition [2] | % Inhibition of 3H-thymidine uptake, No AGP ([3]; 1 μM compound, no AGP, 1 µM) [%] | % Inhibition of 3H-thymidine uptake, +40 mg/ml HSA ([3]; 3 h) [%] | inhibition at 1 µM [3, 6] [%] | inhibition at 1 µM [3, 7] [%] | inhibition at 1 µM [3, 8] [%] | inhibition at 10 µM [3, 6] [%] | inhibition at 10 µM [3, 7] [%] | inhibition at 10 µM [3, 8] [%] | IC50 ([3]; Mus musculus, L1210, no AGP) [nM] | Effect of AGP on the inhibition of thymidine uptake ([3]; in words) | Potency as inhibitor relative to dipyridamole ([3]; presence and absence of AGP, or of 40 mg/ml human serum albumin) | Prevention of hypoxanthine rescue from LY309887 growth inhibition [4] | Prevention of hypoxanthine rescue from LY309887 growth inhibition [5] |
| --- | --- | --- | --- | --- | --- | --- | --- | --- | --- | --- | --- | --- | --- | --- | --- |
| OCCN(CCO)c1nc(N2CCCCC2)c2nc(N(CCO)CCO)nc(N3CCCCC3)c2n1 [NU3003, 2,6-bis(diethanolamino)-4,8-dipiperidinopyrimidopyrimidine, reference compound] | blocked hypoxantine rescue | blocked hypoxantine rescue | – | – | – | – | – | – | – | – | – | – | – | – | – |
| COc1ccc(CNc2nc(N(CCO)CCO)nc3c(NCc4ccc(OC)cc4)nc(N(CCO)CCO)nc23)cc1 [NU3076, 2,6-bis (Diethanolamino)-4,8-di[(4'-methoxybenzyl)amino]pyrimidopyrimidine] | – | – | 56 ± 10 | 89 ± 10 | 18 | 46 ± 8 | 65 ± 11 | 7 | 89 ± 14 | 96 ± 8 | 253 ± 75 | no significant reduction | more potent inhibitors than dipyridamole | prevented hypoxanthine rescue | prevented hypoxanthine rescue |
